Consider one molecule from US8609870B2, “Treating various disorders using TrkB agonists” (Emory University, priority 2008, dated 2013).

The subject of series [1] is TrkB. Briefly: TrkB phosphorylation in hippocampal neurons (immunofluorescent staining, immunoblotting). The series is classed as cell-based. The following applies: hippocampal neurons. On the procedure:
Unless specifically described, primary hippocampal neurons are seeded on poly-L lysine coated coverslips in a 12-well plate. After 7 days in vitro, the neurons are treated with 100 ng/ml BDNF or variety of flavone compounds (1 μM) for 30 minutes, and then are washed with PBS. Cells are fixed with 3% formaldehyde in PBS at room temperature for 10 minutes. The cells then are permeabilized and blocked by 0.4% Triton X-100 and 2% FBS in PBS at room temperature for 15 minutes, are washed with PBS three times, and are treated with anti-MAP2 (1:200) and anti-phospho-TrkB antibodies (1:500). After staining with FITC- or Rhodamine-conjugated secondary antibody, the coverslips are mounted on slides. Fluorescent images are taken by a fluorescence microscope.
BDNF binding to TrkB induces its autophosphorylation and, subsequently, activation of downstream kinase pathways including MAPK and PI3/Akt. […] To examine whether an identified active compound stimulates TrkB-mediated downstream signaling cascades, Western analysis is performed and the activation of Akt and Erk also is monitored. […] To probe the time course of TrkB activation triggered by an identified active compound, hippocampal neurons are treated with an identified active compound at 500 nM and phosphorylation of Erk and Akt is determined over time by Western analysis. […]
For orientation: A western blot detects proteins with antibodies after separation by electrophoresis.

Another series relates to Erk1/2 and Akt. Description: Erk1/2 and Akt activation in hippocampal neurons (Western blot). The series is classed as cell-based. The following applies: hippocampal neurons. The method, then:
BDNF binding to TrkB induces its autophosphorylation and, subsequently, activation of downstream kinase pathways including MAPK and PI3/Akt. To explore whether an identified active compound triggers TrkB activation, immunofluorescent staining on hippocampal neurons with anti-phospho TrkB antibody is conducted. To examine whether an identified active compound stimulates TrkB-mediated downstream signaling cascades, Western analysis is performed and the activation of Akt and Erk also is monitored. To test whether the stimulatory effect of an identified active compound is mediated through TrkB, cells are either untreated or treated with K252a, a selective inhibitor of the tyrosine kinase activity of the Trk family of neutrophin receptors. Cells treated with K252a block TrkB tyrosine phosphorylation in cells exposed to an identified active compound. To probe the time course of TrkB activation triggered by an identified active compound, hippocampal neurons are treated with an identified active compound at 500 nM and phosphorylation of Erk and Akt is determined over time by Western analysis. Whether stimulation of Erk and Akt by an identified active compound occurs in a dose dependent manner also is determined.
Both Akt and Erk1/2 were robustly activated by these molecules as well). […] The minimal required drug concentration was about 100-250 nM (see FIG. 7, right panels). […] To assess whether deoxygedunin provokes TrkB activation in the brain, mice (i.p.) were injected with a dose of 5 mg/kg for various time points. […] To establish that deoxygedunin is orally bioactive in provoking TrkB activation, two to three month old C57BL/6J mice were orally injected with various doses of 7,8-dihydroxyflavone or deoxygedunin then sacrificed 2 to 4 hours after administration. Brain lysates were prepared and analyzed by immunoblotting (see FIG. 10).

Another series deals with T1, TrkC (Homo sapiens, UniProt Q16288).
T1 construct: expressed in transfected cells; host or cells: HEK293
T1 sequence (Q16288 32-839, species assumed): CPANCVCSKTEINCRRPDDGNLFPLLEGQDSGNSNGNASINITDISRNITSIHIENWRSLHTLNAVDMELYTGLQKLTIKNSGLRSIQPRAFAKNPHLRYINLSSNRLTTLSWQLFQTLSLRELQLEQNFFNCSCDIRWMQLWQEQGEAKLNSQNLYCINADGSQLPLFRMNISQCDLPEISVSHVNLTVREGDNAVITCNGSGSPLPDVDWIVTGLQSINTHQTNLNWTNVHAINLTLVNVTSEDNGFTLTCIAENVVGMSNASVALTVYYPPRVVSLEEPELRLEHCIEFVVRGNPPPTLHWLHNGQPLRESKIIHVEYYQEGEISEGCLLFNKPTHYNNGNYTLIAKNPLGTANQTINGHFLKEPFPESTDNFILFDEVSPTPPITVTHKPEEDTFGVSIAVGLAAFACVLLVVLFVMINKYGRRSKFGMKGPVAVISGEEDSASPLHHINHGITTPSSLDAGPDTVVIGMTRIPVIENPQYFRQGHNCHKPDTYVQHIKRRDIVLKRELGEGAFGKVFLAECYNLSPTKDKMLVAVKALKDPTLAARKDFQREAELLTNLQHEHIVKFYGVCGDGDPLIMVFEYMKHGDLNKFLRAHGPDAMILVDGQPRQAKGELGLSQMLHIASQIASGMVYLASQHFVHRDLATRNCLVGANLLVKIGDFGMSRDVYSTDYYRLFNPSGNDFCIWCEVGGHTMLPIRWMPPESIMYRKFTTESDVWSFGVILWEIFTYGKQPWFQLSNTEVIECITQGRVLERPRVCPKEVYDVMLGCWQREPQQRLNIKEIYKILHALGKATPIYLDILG
Briefly: Tyrosine phosphorylation of TrkC in transfected HEK293 cells. In kind it is cell-based. The text has this: To determine if an identified active compound promotes tyrosine phosphorylation of the other Trk receptors, HEK293 cells are transfected with various Trk receptors, which is followed by treatment with the identified active compound. Treatment with an identified active compound that elicits tyrosine phosphorylation in the TrkB receptor but not in the TrkA or TrkC receptor indicates an active compound.
To determine whether deoxygedunin binds the intra-cellular domain (ICD) or extra-cellular domain (ECD) of the TrkB receptor, ligand binding assays with [^3H]-deoxygedunin were performed. […] The coprecipitated HA-TrkB was also prominently tyrosine phosphorylated (see FIG. 14, 3rd panel).

The subject of series [2] is TrkB. Briefly: TrkB activation in cortical neurons from knockout mouse pups. The series is classed as cell-based. On the procedure:
To determine whether an identified active compound selectively activates TrkB receptor and prevents neuronal cell death, cortical neurons are prepared from homozygous pups of TrkB +/− mice, which are mated to the same genotype. The activation of TrkB and down stream indicators of TrkB activation, such as Capase-3, are monitored. To further assess whether an identified active compound blocks neuronal apoptosis in a TrkB dependent manner, cortical neurons are prepared from homozygous pups of […], which are mated to the same genotype. Again, the activation of TrkB and down stream indicators of TrkB activation, such as Capase-3, are monitored.
Additionally, the spontaneous caspase-3 activation in […] was suppressed by deoxygedunin.

Another series concerns TrkB F616A knockin mice. Briefly: KA-provoked apoptosis (caspase-3) in TrkB F616A knockin mice. The series is classed as in vivo, mouse. The settings on record: TrkB F616A mice, without 1NMPP1. The method, then:
To determine if 1NMPP1 makes neurons treated with an identified active compound vulnerable to KA-provoked neuronal cell death, TrkF616A knockin mice are fed with 1NMPP1 (25 mM) in drinking water one day prior to pharmacological reagent treatment. The next day, the mice are intraperitoneally injected with KA (25 mg/kg), or an identified active compound (5 mg/kg) 4 hours prior to KA injection. The control mice are injected with either KA or an identified active compound alone, or the mice are administered an identified active compound 4 hours before KA. After 4 days, the mice are sacrificed and the brains are homogenized and ultracentrifuged. The supernatant then is employed for SDS-PAGE and immunoblotting analysis.
[…] inversely correlated with TrkB activation by deoxygedunin (FIG. 20, top and middle panels).

Another series deals with adult male rats. Briefly: Transient middle cerebral artery occlusion (MCAO) stroke model. The following applies: 2 h MCAO.

On to `CC(=O)O[C@@H]1C[C@H]2C(C)(C)C(=O)C=C[C@]2(C)[C@H]2CC[C@]3(C)C(=CC(=O)O[C@H]3c3ccoc3)[C@@]21C` [deoxygedunin], for which the TrkB phosphorylation entry in the series with TrkB [1] is listed as “strong TrkB phosphorylation”. Besides, the “minimal required drug concentration for Erk1/2 and Akt activation” value with Erk1/2 and Akt was 100 to 250 nM. In the series on Erk1/2 and Akt (time course and dose dependency), the “Erk1/2 and Akt activation” value was “prominently provoked both Erk1/2 and Akt activation”. Also, at TrkC, the “tyrosine phosphorylation in TrkC” value was “not in TrkA or TrkC receptor”. Further, the TrkB activation result in the series with TrkB [2] (TrkB −/− cortical neurons) was “not TrkB −/− neurons”; in the series with TrkB [2] (both wild-type and TrkC knockout neurons) it was “strongly provoked TrkB”; in the series on TrkB [2] (wild-type cortical neurons (pups of TrkB +/− mice)), “specifically activated TrkB”. Further, the KA-provoked apoptosis result in the series on TrkB F616A knockin mice was “suppressed KA-provoked apoptosis”. The “survival of ischemic insult and treatment” value in the series on adult male rats (5 mg/kg) is “All animals included in the study survived”. For the same molecule, the “infarct volumes (TTC stained sections)” value with adult male rats (5 mg/kg 5 minutes prior to reperfusion, 24 hours after MCAO) was “significantly reduced infarct volumes”.
